Columns and labels:
PC3 cells = assay: LDH release assay, PC3; type: cell-based, human; settings: 72 h
Procedure: (§1) The presence of lactate dehydrogenase (LDH) in culture medium indicates a disturbance of the integrity of the cellular membrane. The LDH activity was performed after 72 h incubation of cells (1 × 10^4 cells per well) in 96-well plates with selected compounds according to manufacturer’s protocol (Roche Diagnostics, Germany), as was described by Chrzanowska et al.. Compound mediated cytotoxicity was determined using equation: ((A test sample−A low control)/ (A high control−A low control)) × 100% (A-absorbance), where “low control” means cells in medium with 2% FBS without tested compounds, and “high control” means cells incubated in medium with 2% FBS and 1% Triton X-100 (100% LDH release). The cytotoxicity was expressed as percentage of LDH release as compared with the maximum release of LDH from Triton-X-100-treated cells.

SW480 cells = assay: LDH release assay, SW480; type: cell-based, human; settings: 72 h
Procedure: as §1

O=[N+]([O-])c1cc([N+]2=C(Nc3ccc(I)cc3)[S][Cu-2]23[S]C(Nc2ccc(I)cc2)=[N+]3c2ccc(Cl)c([N+](=O)[O-])c2)ccc1Cl [Compound 8, Copper (II) complex with 1-(4-iodophenyl)-3-(4-chloro-3-nitrophenyl)thiourea]
LDH release (PC3 cells; PC3, 10 μM): 27.2%
LDH release (PC3 cells; PC3, 40 μM): 56.4%
LDH release (PC3 cells; PC3, 60 μM): 64%
LDH release (SW480 cells; SW480, 20 μM): 42%
LDH release (SW480 cells; SW480, 40 μM): 46.4%
LDH release (SW480 cells; SW480, 60 μM): 58%
